These results are taken from patent publication US20180148418A1, “AMIDO-SUBSTITUTED CYCLOHEXANE DERIVATIVES” (Bayer Pharma Aktiengesellschaft, priority 2015, published 2018).

One assay concerns the target T1, TNKS2 (Homo sapiens, UniProt Q9H2K2).
T1 construct: purchased BPS Bioscience, San Diego, USA 80572 (TNKS2 Histone Ribosylation Assay Kit)
T1 sequence (Q9H2K2 1-1166): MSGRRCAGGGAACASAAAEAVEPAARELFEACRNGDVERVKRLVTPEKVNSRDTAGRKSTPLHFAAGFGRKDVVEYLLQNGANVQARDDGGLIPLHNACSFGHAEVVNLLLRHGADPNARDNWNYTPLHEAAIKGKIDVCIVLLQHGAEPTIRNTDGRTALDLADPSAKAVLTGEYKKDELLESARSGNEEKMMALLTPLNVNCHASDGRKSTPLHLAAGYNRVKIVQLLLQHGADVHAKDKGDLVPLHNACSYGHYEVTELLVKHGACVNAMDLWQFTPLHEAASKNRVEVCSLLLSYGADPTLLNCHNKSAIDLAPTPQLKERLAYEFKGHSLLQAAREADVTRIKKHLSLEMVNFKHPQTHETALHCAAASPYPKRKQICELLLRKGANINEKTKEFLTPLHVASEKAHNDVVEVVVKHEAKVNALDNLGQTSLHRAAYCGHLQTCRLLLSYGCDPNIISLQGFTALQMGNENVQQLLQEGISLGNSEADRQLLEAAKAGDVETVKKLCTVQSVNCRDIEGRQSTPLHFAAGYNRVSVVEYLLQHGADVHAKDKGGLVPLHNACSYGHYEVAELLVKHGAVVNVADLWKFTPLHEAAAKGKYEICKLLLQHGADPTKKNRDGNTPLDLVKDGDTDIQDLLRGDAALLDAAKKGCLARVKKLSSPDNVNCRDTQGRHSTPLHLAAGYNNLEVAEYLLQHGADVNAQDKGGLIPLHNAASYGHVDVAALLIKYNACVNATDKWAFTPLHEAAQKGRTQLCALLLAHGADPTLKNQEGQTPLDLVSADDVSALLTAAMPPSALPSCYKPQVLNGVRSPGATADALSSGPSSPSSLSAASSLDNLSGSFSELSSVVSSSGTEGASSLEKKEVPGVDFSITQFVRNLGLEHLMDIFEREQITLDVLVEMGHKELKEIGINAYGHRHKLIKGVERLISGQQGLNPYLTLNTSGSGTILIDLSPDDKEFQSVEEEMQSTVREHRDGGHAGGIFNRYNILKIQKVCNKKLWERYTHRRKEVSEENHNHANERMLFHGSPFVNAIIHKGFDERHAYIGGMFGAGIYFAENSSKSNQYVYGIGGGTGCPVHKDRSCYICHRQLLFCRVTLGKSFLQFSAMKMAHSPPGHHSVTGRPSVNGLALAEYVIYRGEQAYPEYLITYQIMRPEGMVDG
The experiment in a line: TNKS2 Assay B (auto-parsylation, [3H]-NAD+ SPA). In kind it is biochemical. Particulars: 6 nM TNKS2, auto-parsylation, over night at room temperature.

For assay [1], the system named is wildtype Wnt signaling cascade. The experiment in a line: HEK293 TOP assay (Super TopFlash luciferase reporter, Wnt-3a stimulated). In kind it is cell-based. The conditions noted are these: Homo sapiens, HEK293, 16 h, HEK293 TOP reporter cells, Wnt3a at EC50, 16 hours. Summed up: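 HEK293 cells stably carrying Super TopFlash (TOP) run in parallel with FOP cells, 10000/well plated 24 h ahead, stimulated with recombinant human Wnt-3a. Compounds tested 50 μM to 15 nM in 3.16-fold steps in CAFTY buffer pH 7.4 with 2 mM Ca^2+ and 0.01% BSA; luciferase read-out.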
A general note: A reporter such as luciferase makes a cellular process visible.

Bounds are passed on as bounds.

As usually defined, the IC50 is the point on the concentration scale where inhibition reaches its midpoint. For `Cc1cc(N2CC[C@]3(CC[C@@H](NC(=O)c4cnc5cccnn45)CC3)C2=O)c(Cl)cc1F` [Example 265, N-[(trans)-2-(2-chloro-4-fluoro-5-methylphenyl)-1-oxo-2-azaspiro[4.5]dec-8-yl]imidazo[1,2-b]pyridazine-3-carboxamide], the IC50 came to 4.8 nM against TNKS2 and 3.5 nM in assay [1].
In the same order, the values of `Cc1cc(N2CC[C@]3(CC[C@@H](NC(=O)c4cnn5cccnc45)CC3)C2=O)c(Cl)cc1F` [Example 267, N-[(trans)-2-(2-chloro-4-fluoro-5-methylphenyl)-1-oxo-2-azaspiro[4.5]dec-8-yl]pyrazolo[1,5-a]pyrimidine-3-carboxamide] are 5.2 nM and 3.2 nM.
As to `CN(C)c1ccn2ncc(C(=O)N[C@H]3CC[C@@]4(CCN(c5ccc(F)cc5Cl)C4=O)CC3)c2n1` [Example 217, N-[(trans)-2-(2-chloro-4-fluorophenyl)-1-oxo-2-azaspiro[4.5]dec-8-yl]-5-(dimethylamino)pyrazolo[1,5-a]pyrimidine-3-carboxamide], the values for the IC50 (at TNKS2; in assay [1]) were 1.7 nM and 3.7 nM, respectively.
As to `CCNC(=O)c1[nH]cnc1C(=O)N[C@H]1CC[C@@]2(CCN(c3ccc(F)cc3)C2=O)CC1` [Example 213, N^5-ethyl-N^4-[(trans)-2-(4-fluorophenyl)-1-oxo-2-azaspiro[4.5]dec-8-yl]-1H-imidazole-4,5-dicarboxamide], the IC50 against TNKS2 came out at 220 nM; in assay [1] it was 140 nM.
In the case of `Cc1cc(C)n2ncc(C(=O)N[C@H]3CC[C@H](C(=O)Nc4cnccc4Cl)CC3)c2n1` [Example 169, N-{trans-4-[(4-chloropyridin-3-yl)carbamoyl]cyclohexyl}-5,7-dimethylpyrazolo[1,5-a]pyrimidine-3-carboxamide], the concentration for half-maximal inhibition (IC50) at TNKS2 came to 14 nM; in assay [1], 33 nM.
For `O=C(NC1CC1)c1nc[nH]c1C(=O)N[C@H]1CC[C@@]2(CCN(c3cc(F)c(F)cc3Cl)C2=O)CC1` [Example 199, N^5-[(trans)-2-(2-chloro-4,5-difluorophenyl)-1-oxo-2-azaspiro[4.5]dec-8-yl]-N^4-cyclopropyl-1H-imidazole-4,5-dicarboxamide], the IC50 at TNKS2 turned out to be 3 nM; in assay [1] it was 0.98 nM.
Turning to `O=C(N[C@H]1CC[C@@]2(CCN(c3cccc(Cl)c3)C2=O)CC1)c1cnn2cccnc12` [Example 268, N-[(trans)-2-(3-chlorophenyl)-1-oxo-2-azaspiro[4.5]dec-8-yl]pyrazolo[1,5-a]pyrimidine-3-carboxamide], the concentration for half-maximal inhibition (IC50) is 230 nM against TNKS2 and 76 nM in assay [1].
Take `O=C(N[C@H]1CC[C@H](C(=O)Nc2ccc(F)cc2Cl)CC1)c1cnc2ccccn12` [Example 206, N-{trans-4-[(2-chloro-4-fluorophenyl)carbamoyl]cyclohexyl}imidazo[1,2-a]pyridine-3-carboxamide]: the IC50 against TNKS2 was greater than 10000 nM; in assay [1], 500 nM.
As to `Cc1ccccc1N(C)C(=O)[C@H]1CC[C@H](NC(=O)c2cnn3cccnc23)CC1` [Example 178, N-{trans-4-[methyl(2-methylphenyl)carbamoyl]cyclohexyl}pyrazolo[1,5-a]pyrimidine-3-carboxamide], the IC50 against TNKS2 was 230 nM; in assay [1] it was 560 nM.
With `CC(C)NC(=O)c1nc[nH]c1C(=O)N[C@H]1CC[C@@]2(CCN(c3cc(F)c(F)cc3Cl)C2=O)CC1` [Example 198, N^5-[(trans)-2-(2-chloro-4,5-difluorophenyl)-1-oxo-2-azaspiro[4.5]dec-8-yl]-N^4-(propan-2-yl)-1H-imidazole-4,5-dicarboxamide], the IC50 on TNKS2 was determined as 3.1 nM; in assay [1] it was 1.7 nM.
For `O=C(NC1CC1)c1nc[nH]c1C(=O)N[C@H]1CC[C@@]2(CCN(c3cccc(Cl)c3)C2=O)CC1` [Example 279, N^5-[(trans)-2-(3-chlorophenyl)-1-oxo-2-azaspiro[4.5]dec-8-yl]-N^4-cyclopropyl-1H-imidazole-4,5-dicarboxamide], the IC50 against TNKS2 is 170 nM; in assay [1], 64 nM.
With `O=C(NCC(F)(F)F)c1nc[nH]c1C(=O)N[C@H]1CC[C@@]2(CCN(c3cc(F)c(F)cc3Cl)C2=O)CC1` [Example 201, N^5-[(trans)-2-(2-chloro-4,5-difluorophenyl)-1-oxo-2-azaspiro[4.5]dec-8-yl]-N^4-(2,2,2-trifluoroethyl)-1H-imidazole-4,5-dicarboxamide], the IC50 came to 2.2 nM at TNKS2 and 0.54 nM in assay [1].
`Cc1cc(C)n2ncc(C(=O)N[C@H]3CC[C@]4(CCN(c5ccc(F)cc5)C4=O)CC3)c2n1` [Example 208, N-[(cis)-2-(4-fluorophenyl)-1-oxo-2-azaspiro[4.5]dec-8-yl]-5,7-dimethyl pyrazolo[1,5-a]pyrimidine-3-carboxamide]: the concentration for half-maximal inhibition (IC50) against TNKS2 was 3200 nM; in assay [1] it was 660 nM.
As for `CNC(=O)c1nc[nH]c1C(=O)N[C@H]1CC[C@@]2(CCN(c3cc(F)c(F)cc3Cl)C2=O)CC1` [Example 196, N^5-[(trans)-2-(2-chloro-4,5-difluorophenyl)-1-oxo-2-azaspiro[4.5]dec-8-yl]-N^4-methyl-1H-imidazole-4,5-dicarboxamide], the IC50 turned out to be 2.4 nM against TNKS2 and 0.74 nM in assay [1].
For `CNC(=O)c1nc[nH]c1C(=O)N[C@H]1CC[C@@]2(CCN(c3cccc(Cl)c3)C2=O)CC1` [Example 276, N^5-[(trans)-2-(3-chlorophenyl)-1-oxo-2-azaspiro[4.5]dec-8-yl]-N^4-methyl-1H-imidazole-4,5-dicarboxamide], the values for the IC50 (against TNKS2; in assay [1]) were 89 nM and 27 nM, respectively.
With `Cc1cc(C)n2ncc(C(=O)N[C@H]3CC[C@@]4(CCN(c5cc(C)c(F)cc5Cl)C4=O)CC3)c2n1` [Example 266, N-[(trans)-2-(2-chloro-4-fluoro-5-methylphenyl)-1-oxo-2-azaspiro[4.5]dec-8-yl]-5,7-dimethylpyrazolo[1,5-a]pyrimidine-3-carboxamide], the concentration for half-maximal inhibition (IC50) against TNKS2 was 6.8 nM; in assay [1] it was 6.6 nM.
With `O=C(N[C@H]1CC[C@H](C(=O)N(CC2CC2)c2ccc(F)cc2Cl)CC1)c1cnn2cccnc12` [Example 177, N-{trans-4-[(2-chloro-4-fluorophenyl)(cyclopropylmethyl)carbamoyl]cyclohexyl}pyrazolo[1,5-a]pyrimidine-3-carboxamide], the results for the IC50 (against TNKS2; in assay [1]) were 9.2 nM and 71 nM, respectively.
Regarding `CC1CCN(CCNC(=O)c2nc[nH]c2C(=O)N[C@H]2CC[C@@]3(CCN(c4ccccc4Cl)C3=O)CC2)CC1` [Example 260, N^5-[(trans)-2-(2-chlorophenyl)-1-oxo-2-azaspiro[4.5]dec-8-yl]-N^4-[2-(4-methylpiperidin-1-yl)ethyl]-1H-imidazole-4,5-dicarboxamide], the IC50 stood at 1.7 nM at TNKS2 and 2.8 nM in assay [1].
As to `O=C(N[C@H]1CC[C@@]2(CCN(c3cccc(Cl)c3)C2=O)CC1)c1cnc2cccnn12` [Example 269, N-[(trans)-2-(3-chlorophenyl)-1-oxo-2-azaspiro[4.5]dec-8-yl]imidazo[1,2-b]pyridazine-3-carboxamide], the 50% inhibitory concentration (IC50) on TNKS2 was determined as 290 nM; in assay [1], 65 nM.
`O=C(N[C@H]1CC[C@@]2(CCN(c3cc(F)c(F)cc3Cl)C2=O)CC1)c1[nH]cnc1C(=O)N1CC(F)C1` [Example 200, N-[(trans)-2-(2-chloro-4,5-difluorophenyl)-1-oxo-2-azaspiro[4.5]dec-8-yl]-4-[(3-fluoroazetidin-1-yl)carbonyl]-1H-imidazole-5-carboxamide]: the IC50 at TNKS2 is 2.6 nM; in assay [1] it was 0.17 nM.
In the case of `Cc1cc(N(C)C(=O)[C@H]2CC[C@H](NC(=O)c3cnn4cccnc34)CC2)c(Cl)cc1F` [Example 176, N-{trans-4-[(2-chloro-4-fluoro-5-methylphenyl)(methyl)carbamoyl]cyclohexyl}pyrazolo[1,5-a]pyrimidine-3-carboxamide], the IC50 against TNKS2 stood at 130 nM; in assay [1], 350 nM.
